Test systems include CCRF-CEM leukemia; EKVX NSCLC; OVCAR-4 ovarian; SNB-75 CNS; MALME-3M melanoma; OVCAR-5 ovarian; MDA-MB-435; SK-MEL-5 melanoma; OVCAR-3 ovarian; SK-MEL-2 melanoma.
Common to all, as to assay: NCI-60 cell line screen, 48 h

The values that follow come from PubChem BioAssay (NCI).

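Interpolation was linear, between the two tested concentrations surrounding the appropriate level; five concentrations were tested over 48 hours in 96-well plates. Abbreviation: GI50, concentration required for 50% inhibition of growth. The concentration for full growth arrest is given as TGI.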

As for `CC(=O)c1cccc(NC(=O)C(=O)c2c(O)c3ccccc3oc2=O)c1`, the TGI in the test with CCRF-CEM leukemia, in the test on EKVX NSCLC, with OVCAR-4 ovarian, in the test on SNB-75 CNS, with MALME-3M melanoma and with OVCAR-5 ovarian was above 100 µM throughout. In addition, the TGI with MDA-MB-435, in the test on SK-MEL-5 melanoma and with OVCAR-3 ovarian was above 100 µM each time.

Consider `Cn1c(=O)n(C)c2cc(CNCCNc3ccnc4cc(Cl)ccc34)ccc21`, for which the GI50 in the test with SK-MEL-2 melanoma is 22.6 µM; in the test on CCRF-CEM leukemia, 30.7 µM; in the test on OVCAR-4 ovarian, 26.1 µM; with SNB-75 CNS, 13.1 µM; with MALME-3M melanoma, 16.6 µM; in the test with OVCAR-5 ovarian it was 20.3 µM. The GI50 in the test with MDA-MB-435 is 15.8 µM; in the test with SK-MEL-5 melanoma, 16.5 µM; in the test with OVCAR-3 ovarian, 30.8 µM. In addition, the TGI in the test with SK-MEL-2 melanoma was 52.5 µM; with CCRF-CEM leukemia it was above 100 µM; in the test with OVCAR-4 ovarian, above 100 µM; with SNB-75 CNS, 35.6 µM; with MALME-3M melanoma, 32.9 µM; in the test with OVCAR-5 ovarian, 65.4 µM. For the same molecule, the TGI in the test on MDA-MB-435 was 31.9 µM; with SK-MEL-5 melanoma it was 30.3 µM; with OVCAR-3 ovarian it was above 100 µM.

In the case of `O=C1/C(=C\c2ccco2)Oc2ccccc21`, the TGI with SK-MEL-2 melanoma, in the test on CCRF-CEM leukemia, in the test on EKVX NSCLC, in the test on OVCAR-4 ovarian, in the test with SNB-75 CNS and in the test on OVCAR-5 ovarian was above 100 µM each time. Moreover, the TGI in the test on MDA-MB-435, with SK-MEL-5 melanoma and in the test with OVCAR-3 ovarian was above 100 µM each time.

With `CO[C@H]1/C=C/O[C@@]2(C)Oc3c(C)c(O)c4c(O)c(c(/C=N/N5CCN(C)CC5)c(O)c4c3C2=O)NC(=O)/C(C)=C\C=C\[C@H](C)[C@H](O)[C@@H](C)[C@@H](O)[C@@H](C)[C@H](OC(C)=O)[C@@H]1C`, the TGI was above 100 µM in the test with SK-MEL-2 melanoma; 81.8 µM in the test on CCRF-CEM leukemia; above 100 µM with EKVX NSCLC; above 100 µM with MALME-3M melanoma; above 100 µM in the test on OVCAR-5 ovarian; above 100 µM in the test with MDA-MB-435. In addition, the TGI in the test with SK-MEL-5 melanoma and with OVCAR-3 ovarian was above 100 µM each time.

Consider `COc1ccc(C(=O)c2sc3nc(-c4ccccc4OC)ccc3c2N)cc1OC`, for which the GI50 in the test with CCRF-CEM leukemia was 4.07 µM; in the test with OVCAR-4 ovarian, 7.49 µM; in the test on SNB-75 CNS, 4.34 µM; with MALME-3M melanoma, 3.65 µM; with OVCAR-5 ovarian, above 100 µM; in the test with MDA-MB-435, 4.25 µM. The GI50 with SK-MEL-5 melanoma was 2.05 µM; in the test on OVCAR-3 ovarian, 18.3 µM. The TGI in the test on CCRF-CEM leukemia was above 100 µM; with OVCAR-4 ovarian it was above 100 µM; in the test with SNB-75 CNS it was 23.4 µM; in the test with MALME-3M melanoma, above 100 µM; in the test on OVCAR-5 ovarian, above 100 µM; in the test with MDA-MB-435, above 100 µM. The TGI in the test on SK-MEL-5 melanoma was 5.68 µM; in the test with OVCAR-3 ovarian, above 100 µM.

On to `COc1ccc(-c2nc(-c3nc4cc(Cl)c(F)cc4[nH]3)c3ccccn23)cc1`, for which the GI50 is 6.86 µM in the test on SK-MEL-2 melanoma; 3.91 µM in the test with CCRF-CEM leukemia; 7.93 µM with OVCAR-4 ovarian; 5.31 µM with SNB-75 CNS; 20 µM with MALME-3M melanoma; above 100 µM in the test on OVCAR-5 ovarian. Further, the GI50 in the test on MDA-MB-435 is 3.8 µM; with SK-MEL-5 melanoma, 2.22 µM; in the test with OVCAR-3 ovarian, 8.75 µM. Besides, the TGI with SK-MEL-2 melanoma is 80 µM; with CCRF-CEM leukemia, above 100 µM; with OVCAR-4 ovarian it was above 100 µM; in the test with SNB-75 CNS, above 100 µM; with MALME-3M melanoma it was above 100 µM; with OVCAR-5 ovarian, above 100 µM. The results for the TGI with MDA-MB-435, with SK-MEL-5 melanoma and in the test on OVCAR-3 ovarian were above 100 µM, 6.79 µM and above 100 µM, respectively.

Regarding `CCOC(=O)c1ccc(NC(=O)NC2=NCCS2)cc1`, the GI50 with SK-MEL-2 melanoma is 24.6 µM; with CCRF-CEM leukemia, 0.433 µM; in the test with OVCAR-4 ovarian it was 56.1 µM; in the test with SNB-75 CNS it was 0.252 µM; in the test with MALME-3M melanoma it was 0.465 µM; with OVCAR-5 ovarian it was 99.1 µM. For the same molecule, the GI50 is 3.42 µM in the test with MDA-MB-435, 2.7 µM in the test on SK-MEL-5 melanoma and 0.289 µM in the test with OVCAR-3 ovarian. For the same molecule, the TGI in the test on SK-MEL-2 melanoma was 97.9 µM; in the test with CCRF-CEM leukemia it was above 100 µM; in the test with OVCAR-4 ovarian it was above 100 µM; in the test on SNB-75 CNS, above 100 µM; in the test with MALME-3M melanoma, above 100 µM; in the test on OVCAR-5 ovarian it was above 100 µM. The TGI in the test with MDA-MB-435 is 19.4 µM; in the test on SK-MEL-5 melanoma it was above 100 µM; in the test with OVCAR-3 ovarian it was 0.897 µM.

`COc1ccc(/C=C2\CCC(CCN(C)C)(C3=CCCC3)C2=O)cc1` (configuration not stated): the TGI with SK-MEL-2 melanoma turned out to be 32.9 µM; with CCRF-CEM leukemia, 53 µM; in the test with EKVX NSCLC, 39.9 µM; with OVCAR-4 ovarian, 44.5 µM; with SNB-75 CNS, 55.2 µM; with MALME-3M melanoma it was 32.6 µM. The results for the TGI with OVCAR-5 ovarian, in the test on SK-MEL-5 melanoma and in the test on OVCAR-3 ovarian were 47.6 µM, 30.3 µM and 49.7 µM, respectively.

Regarding `CC(/C=C/C(O)=C1/C(=O)CNC1=O)=C\[C@@H](C)[C@H]1O[C@@]2(C)O[C@H](C(=O)[C@@H]3O[C@@]32C)[C@@H]1C`, the TGI in the test on SK-MEL-2 melanoma is 50.1 µM; in the test on CCRF-CEM leukemia, above 100 µM; in the test with EKVX NSCLC, 39.2 µM; in the test with SNB-75 CNS, 63.1 µM; with MALME-3M melanoma, 38 µM; in the test on OVCAR-5 ovarian it was 57.5 µM. The TGI in the test with MDA-MB-435 came to 83.1 µM; with SK-MEL-5 melanoma, 40.4 µM; with OVCAR-3 ovarian, 44.6 µM.

Consider `COc1ccc(O)c(C(=O)CCC(=O)O)c1`, for which the TGI in the test with SK-MEL-2 melanoma, in the test on CCRF-CEM leukemia, in the test on EKVX NSCLC, in the test with OVCAR-4 ovarian, with SNB-75 CNS and with MALME-3M melanoma was above 100 µM throughout. The values for the TGI in the test on OVCAR-5 ovarian, in the test on SK-MEL-5 melanoma and in the test on OVCAR-3 ovarian were above 100 µM, above 100 µM and above 10 µM, respectively.

In the case of `CC(C)(C)NCC(O)COc1c(Br)c(Br)c(Br)c2c1OC(C)(C)C2` (configuration not stated), the GI50 is 1.6 µM in the test on SK-MEL-2 melanoma; 1.97 µM with CCRF-CEM leukemia; 1.61 µM with EKVX NSCLC; 1.71 µM in the test with MALME-3M melanoma; 2.02 µM in the test with MDA-MB-435; 1.55 µM with SK-MEL-5 melanoma. Besides, the GI50 with OVCAR-3 ovarian was 1.54 µM. The TGI in the test with SK-MEL-2 melanoma stood at 3.23 µM; in the test with CCRF-CEM leukemia, 3.76 µM; in the test with EKVX NSCLC it was 3.02 µM; in the test with MALME-3M melanoma, 3.24 µM; with MDA-MB-435, 3.96 µM; in the test with SK-MEL-5 melanoma, 2.89 µM. This molecule had a TGI in the test with OVCAR-3 ovarian of 3.11 µM.
